Source: article PMC5706701, “Development of a homogenous high-throughput assay for inositol hexakisphosphate kinase 1 activity” (PLoS ONE, 2017)
Where a name gives a salt, the structure may show the parent alone. Read-outs that look alike come from different tables or passages of the source.

Target: T1, Human IP6K1 (Homo sapiens, UniProt Q92551)
T1 construct: GST (N, cleaved yes); made in house; host or cells: C43 E. coli, pGEX-6P-2
Assay: IP6K1 high-throughput screen of the Sigma LOPAC (ADP-Glo Max, single point);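 further: final compound concentration 10µM in 5% DMSO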
Assay type: biochemical

[1] = LOPAC single-point screen, ADP-Glo Max raw signal per well
[2] = LOPAC single-point screen, Z-score against plate average and StDev
[3] = LOPAC single-point screen, Z-score from raw signal with plate average and StDev
[4] = LOPAC single-point screen, ADP-Glo Max luminescence raw signal per well
[5] = LOPAC single-point screen, Z-score relative to plate average and StDev
[6] = LOPAC single-point screen, Z-score from plate average and StDev
[7] = Sigma LOPAC single-point screen, ADP-Glo Max raw signal per well
[8] = Sigma LOPAC single-point screen, Z-score from plate average and StDev

T1 sequence (Q92551 whole entry): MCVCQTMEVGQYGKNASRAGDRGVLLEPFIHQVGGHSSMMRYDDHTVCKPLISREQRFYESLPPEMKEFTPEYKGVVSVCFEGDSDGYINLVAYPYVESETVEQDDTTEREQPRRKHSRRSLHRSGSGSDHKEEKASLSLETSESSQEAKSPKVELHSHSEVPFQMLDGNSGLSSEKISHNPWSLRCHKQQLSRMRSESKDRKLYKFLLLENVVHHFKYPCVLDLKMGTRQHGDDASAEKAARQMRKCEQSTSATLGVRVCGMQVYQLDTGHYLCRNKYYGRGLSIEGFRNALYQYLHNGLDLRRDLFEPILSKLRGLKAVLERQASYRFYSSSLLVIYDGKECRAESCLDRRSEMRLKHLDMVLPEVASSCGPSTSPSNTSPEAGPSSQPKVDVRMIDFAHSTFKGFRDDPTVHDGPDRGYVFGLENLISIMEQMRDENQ

N[C@@H](CCCC(=O)O)C(=O)O [L-2-aminoadipic acid]
Raw Signal [1]: 59199
Z-score [2]: 0.2265

CC1=C(/C=C/C(C)=C/C=C/C(C)=C\C(=O)O)C(C)(C)CCC1 [13-cis-retinoic acid]
Raw Signal [1]: 55954
Z-score [2]: -0.01356

(+)-Cyclazocine
Raw Signal [1]: 53235
Z-score [3]: -0.3924

C[C@H](Cc1ccc2c(c1)OC(C(=O)[O-])(C(=O)[O-])O2)NC[C@H](O)c1cccc(Cl)c1.[Na+].[Na+] [CL 316,243]
Raw Signal [1]: 56247
Z-score [3]: -0.2934

CCCCCCCCCCCCCC(=O)O[C@@H]1[C@@H](C)[C@@]2(O)[C@@H](C=C(CO)C[C@]3(O)C(=O)C(C)=C[C@@H]23)[C@@H]2C(C)(C)[C@]12OC(C)=O [Phorbol 12-myristate 13-acetate]
Raw Signal [1]: 57693
Z-score [2]: 0.3243

CN(C(=O)CCCOc1ccc2[nH]c(=O)ccc2c1)C1CCCCC1 [Cilostamide]
Raw Signal [4]: 54164
Z-score [5]: -0.6603

Cl.Cl.c1ccc(CCCN2CCN(CCOC(c3ccccc3)c3ccccc3)CC2)cc1 [GBR-12935 dihydrochloride]
Raw Signal [4]: 62907
Z-score [6]: 1.572

CC(N)C(=O)OC(C)(C)Cc1ccc(Cl)cc1 (stereo not drawn) [Alaproclate hydrochloride]
Raw Signal [4]: 54794
Z-score [5]: -0.5494

Nc1ncn([C@@H]2O[C@H](CO)[C@@H](O)[C@H]2O)c(=O)n1 [5-azacytidine]
Raw Signal [4]: 54885
Z-score [5]: -0.5333

O=C(OCCN1CCOCC1)C1(c2ccccc2)CCCCC1 [PRE-084]
Raw Signal [1]: 55518
Z-score [2]: 0.1889

NCCc1c[nH]c2ccc(O)cc12 [Serotonin hydrochloride]
Raw Signal [7]: 60327
Z-score [8]: 1.048

COCc1nc2c([nH]1)c(=O)n(C)c(=O)n2CC(C)C
Raw Signal [1]: 51997
Z-score [3]: -0.4027

CC(C)NC[C@H](O)c1ccc(O)c(O)c1.O=C(O)C(O)C(O)C(=O)O [R(-)-Isoproterenol (+)-bitartrate]
Raw Signal [4]: 62194
Z-score [6]: 1.427

O=c1onc2cnc3ccccc3n12 [ODQ]
Raw Signal [7]: 60819
Z-score [8]: 1.08

CNC1(C)C2CCC(C2)C1(C)C (stereo not drawn) [Mecamylamine hydrochloride]
Raw Signal [1]: 55214
Z-score [2]: 0.1379

CC(=O)[C@H]1CC[C@H]2[C@@H]3CC=C4C[C@@H](OS(=O)(=O)[O-])CC[C@]4(C)[C@H]3CC[C@]12C.[Na+] [Pregnenolone sulfate sodium]
Raw Signal [4]: 62981
Z-score [6]: 1.352

Cn1cc(C2=C(c3ccc(Cl)cc3Cl)C(=O)NC2=O)c2ccccc21 [SB 216763]
Raw Signal [7]: 56670
Z-score [8]: 0.3825

CCN(CC)CCNC(=O)c1ccc(NC(C)=O)cc1.Cl [N-Acetylprocainamide hydrochloride]
Raw Signal [4]: 70393
Z-score [6]: 2.198

C=C[C@H]1C[N@@]2CC[C@H]1C[C@H]2[C@H](O)c1ccnc2ccc(OC)cc12 [Quinine sulfate]
Raw Signal [1]: 53765
Z-score [3]: -0.4388

C[C@H](O)C(=O)C1=Nc2c(nc(N)[nH]c2=O)NC1 [Sepiapterin]
Raw Signal [7]: 58753
Z-score [8]: 0.5302

C[C@@](Cc1ccc(O)c(O)c1)(NN)C(=O)O [S-(-)-Carbidopa]
Raw Signal [1]: 55065
Z-score [2]: -0.02072

CCCc1c(OCCCOc2ccc(OCC(=O)O)cc2)ccc(C(C)=O)c1O [L-165,041]
Raw Signal [7]: 57961
Z-score [8]: 0.5674

N[C@@H](COP(=O)(O)O)C(=O)O [O-Phospho-L-serine]
Raw Signal [7]: 59842
Z-score [8]: 0.9155

COc1c2c(nc3ccccc13)OC(C(C)(O)CO)C2 (stereo not drawn) [Dubinidine]
Raw Signal [4]: 52835
Z-score [5]: -0.4736

Br.CCCN(CCC)C1CCc2cccc(O)c2C1 (racemic) [(±)-8-Hydroxy-DPAT hydrobromide]
Raw Signal [1]: 55597
Z-score [2]: 0.08732

CC1CCN(CC[C@H]2CCCN2S(=O)(=O)c2cccc(O)c2)CC1.Cl [SB 269970 hydrochloride]
Raw Signal [1]: 57058
Z-score [2]: 0.2009

C=CCN1CC[C@]23c4c5ccc(O)c4O[C@H]2/C(=N/NC(=O)c2ccccc2)CC[C@@]3(O)[C@H]1C5 [Naloxone benzoylhydrazone]
Raw Signal [7]: 57821
Z-score [8]: 0.5759

O=C(O)c1cc(=O)c2c(Cl)cc(Cl)cc2[nH]1 [5,7-Dichlorokynurenic acid]
Raw Signal [4]: 49912
Z-score [5]: -1.067

CC#C[C@]1(O)CC[C@H]2[C@@H]3CCC4=CC(=O)CCC4=C3[C@@H](c3ccc(N(C)C)cc3)C[C@@]21C [Mifepristone]
Raw Signal [7]: 60991
Z-score [8]: 1.109

O=C1c2c(O)cc(O)cc2OC(c2ccc(O)c(O)c2)C1O (racemic) [(±)-Taxifolin]
Raw Signal [7]: 61241
Z-score [8]: 1.0136

Cl.NCCCCCCNS(=O)(=O)c1cccc2c(Cl)cccc12 [W-7 hydrochloride]
Raw Signal [1]: 57979
Z-score [2]: 0.01161

OCC1OC(n2cnc3ccccc32)C(O)C1O [D-ribofuranosylbenzimidazole]
Raw Signal [4]: 49673
Z-score [5]: -1.116

CCCc1c(-c2ccc(O)cc2)nn(-c2ccc(O)cc2)c1-c1ccc(O)cc1
Raw Signal [4]: 52149
Z-score [5]: -0.6129

OCc1ccc(-c2nn(Cc3ccccc3)c3ccccc23)o1 [YC-1]
Raw Signal [1]: 55059
Z-score [3]: -0.1874

CN(C)CCOC(c1ccccc1)c1ccccc1 [Diphenhydramine hydrochloride]
Raw Signal [1]: 54459
Z-score [3]: -0.1438

CC(C)NCC(O)COc1ccc(CCOCC2CC2)cc1 (stereo not drawn) [Betaxolol hydrochloride]
Raw Signal [1]: 59138
Z-score [2]: 0.2157

Oc1cccc2c(O)nccc12 [1,5-Isoquinolinediol]
Raw Signal [1]: 54537
Z-score [2]: 0.02411

Cc1ccccc1/C=C/C1=NCCN1 [Metrazoline oxalate]
Raw Signal [4]: 51543
Z-score [5]: -0.479

CCCOC(=O)c1c(-c2ccccc2)nc(CC)c(C(=O)SCC)c1CCC [MRS 1523]
Raw Signal [1]: 53053
Z-score [3]: -0.2252

CC(C)(C)C1(O)CCN2CC3c4ccccc4CCc4cccc(c43)C2C1.Cl (racemic) [(±)-Butaclamol hydrochloride]
Raw Signal [7]: 57693
Z-score [8]: 0.513

OC[C@H]1O[C@@H](n2cnc3c(N[C@H]4CC5CCC4C5)ncnc32)[C@H](O)[C@@H]1O (stereo partly drawn) [(S)-ENBA]
Raw Signal [1]: 53537
Z-score [3]: -0.331

Br.CCCN(CCC)[C@@H]1CCc2cccc(O)c2C1 [R-(+)-8-Hydroxy-DPAT hydrobromide]
Raw Signal [7]: 58179
Z-score [8]: 0.6117

O=C(CCCN1CCC2(CC1)C(=O)NCN2c1ccccc1)c1ccc(F)cc1 [Spiperone hydrochloride]
Raw Signal [4]: 52620
Z-score [5]: -0.6613

CN(C)C(=O)Oc1cccc([N+](C)(C)C)c1 [Neostigmine bromide]
Raw Signal [1]: 55937
Z-score [2]: 0.2593

CCC1(c2ccc(N)cc2)CCC(=O)NC1=O (racemic) [(±)-p-Aminoglutethimide]
Raw Signal [1]: 58613
Z-score [2]: 0.1233

Br.Br.NC(N)=NCCSSCCN=C(N)N [Guanidinoethyl disulfide dihydrobromide]
Raw Signal [7]: 61778
Z-score [8]: 1.343

Ro 20-1724
Raw Signal [4]: 54602
Z-score [5]: -0.5832

5-Bromo-2 -deoxyuridine
Raw Signal: 57175
Z-score: -0.13

Br.C=CCN1CCc2cccc3c2[C@H]1Cc1ccc(O)c(O)c1-3 [R(-)-N-Allylnorapomorphine hydrobromide]
Raw Signal [4]: 62401
Z-score [6]: 1.469

C[N+](C)(C)CCOC(=O)CBr.[Br-] [Bromoacetylcholine bromide]
Raw Signal [4]: 53767
Z-score [5]: -0.7302

CCCCCCCCCCCCCCC[C@H](O)[C@H](N)CO (racemic) [DL-erythro-Dihydrosphingosine]
Raw Signal [1]: 54857
Z-score [2]: -0.06296

COc1ccc2[nH]c(I)c(CCNC(C)=O)c2c1 [2-Iodomelatonin]
Raw Signal [1]: 55940
Z-score [2]: 0.157

CC(=O)C(C)=NO [2,3-Butanedione monoxime]
Raw Signal [4]: 66346
Z-score [6]: 1.485

Br.Oc1ccc(C2CNCc3sccc32)cc1O (stereo not drawn) [SKF 89626]
Raw Signal [1]: 56262
Z-score [2]: 0.04628

COc1ccc([C@@H]2Sc3ccccc3N(CCN(C)C)C(=O)[C@@H]2OC(C)=O)cc1 [Diltiazem hydrochloride]
Raw Signal [4]: 65486
Z-score [6]: 2.096

COc1ccc2[nH]cc(CCN)c2c1.Cl [O-Methylserotonin hydrochloride]
Raw Signal [1]: 53655
Z-score [3]: -0.1241

COc1ccc2c(c[n+](C)c3c4cc5c(cc4ccc23)OCO5)c1OC [Chelerythrine chloride]
Raw Signal [4]: 66575
Z-score [6]: 1.5256

N=C(N)N/N=C/c1c(Cl)cccc1Cl [Guanabenz acetate]
Raw Signal [1]: 54722
Z-score [2]: -0.09038

COc1ccc2cc([C@H](C)C(=O)[O-])ccc2c1.[Na+] [(-)-Naproxen sodium]
Raw Signal [7]: 56716
Z-score [8]: 0.3902

COC(=O)C1=CCCN(C)C1 [Arecoline hydrobromide]
Raw Signal [1]: 57110
Z-score [3]: -0.1414

N.N.O=C([O-])C1(C(=O)[O-])CCC1.[Pt+2] [Carboplatin]
Raw Signal [4]: 53949
Z-score [5]: -0.6982

CCN1CCC[C@H]1CNC(=O)c1c(O)c(Cl)cc(Cl)c1OC.O=C(O)C(O)C(O)C(=O)O (racemic) [S(+)-Raclopride L-tartrate]
Raw Signal [7]: 59305
Z-score [8]: 0.6375

S=C=Nc1cccc(C2(N3CCCCC3)CCCCC2)c1 [Metaphit methanesulfonate]
Raw Signal [7]: 56894
Z-score [8]: 0.4201
